From publication PMC6326728, “eIF2B activator prevents neurological defects caused by a chronic integrated stress response” (eLife, 2019)

Key:
eIF2B = target: T1, eIF2B (Mus musculus, UniProt Q61749+Q99LD9); assay: GEF assay, Bodipy-FL-GDP release from eIF2, fluorescence; format: biochemical; conditions: activator; MEF lysate 0.1 mg/mL; 25 nM Bodipy-FL-GDP-loaded eIF2; 3 nM phospho-eIF2; 0.1 mM GDP; 25°C; homozygous R191H MEF lysate
T1 construct: gene Eif2b2; native endogenous complex in lysate of mouse embryonic fibroblasts; decamer of five subunits; with Translation initiation factor eIF2B subunit alpha; Translation initiation factor eIF2B subunit gamma; Translation initiation factor eIF2B subunit epsilon
T1 sequence (Q99LD9 whole entry): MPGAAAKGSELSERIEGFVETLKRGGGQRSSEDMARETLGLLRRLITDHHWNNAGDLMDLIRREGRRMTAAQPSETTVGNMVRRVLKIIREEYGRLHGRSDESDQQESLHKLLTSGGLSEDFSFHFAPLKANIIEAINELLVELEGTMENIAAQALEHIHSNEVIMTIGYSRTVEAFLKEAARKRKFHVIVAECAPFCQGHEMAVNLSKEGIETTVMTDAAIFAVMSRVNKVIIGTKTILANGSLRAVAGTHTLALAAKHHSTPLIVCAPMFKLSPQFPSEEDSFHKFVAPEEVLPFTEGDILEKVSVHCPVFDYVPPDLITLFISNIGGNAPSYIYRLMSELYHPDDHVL
T1 sequence (Q61749 2-524): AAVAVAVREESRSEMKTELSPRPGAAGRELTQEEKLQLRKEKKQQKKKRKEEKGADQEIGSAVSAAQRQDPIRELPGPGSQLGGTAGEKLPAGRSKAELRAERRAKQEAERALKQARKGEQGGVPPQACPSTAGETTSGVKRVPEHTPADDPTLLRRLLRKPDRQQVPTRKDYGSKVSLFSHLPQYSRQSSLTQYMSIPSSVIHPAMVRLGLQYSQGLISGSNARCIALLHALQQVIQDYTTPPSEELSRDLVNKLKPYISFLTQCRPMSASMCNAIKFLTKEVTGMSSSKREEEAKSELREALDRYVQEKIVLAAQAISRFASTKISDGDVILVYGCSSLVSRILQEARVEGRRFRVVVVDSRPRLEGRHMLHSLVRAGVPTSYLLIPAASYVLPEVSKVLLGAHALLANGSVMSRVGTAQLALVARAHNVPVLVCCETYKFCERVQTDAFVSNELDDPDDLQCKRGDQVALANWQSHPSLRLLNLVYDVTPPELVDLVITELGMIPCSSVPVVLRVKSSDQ
T1 sequence (Q99LC8 whole entry partner): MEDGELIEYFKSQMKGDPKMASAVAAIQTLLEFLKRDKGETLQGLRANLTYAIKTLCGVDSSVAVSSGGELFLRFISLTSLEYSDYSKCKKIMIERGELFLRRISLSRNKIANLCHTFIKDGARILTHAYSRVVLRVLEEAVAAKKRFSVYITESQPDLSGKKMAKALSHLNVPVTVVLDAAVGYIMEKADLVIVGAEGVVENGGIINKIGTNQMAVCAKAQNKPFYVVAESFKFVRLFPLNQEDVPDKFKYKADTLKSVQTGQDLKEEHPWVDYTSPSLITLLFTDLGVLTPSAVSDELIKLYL
T1 sequence (B1AUN2 1-452 partner): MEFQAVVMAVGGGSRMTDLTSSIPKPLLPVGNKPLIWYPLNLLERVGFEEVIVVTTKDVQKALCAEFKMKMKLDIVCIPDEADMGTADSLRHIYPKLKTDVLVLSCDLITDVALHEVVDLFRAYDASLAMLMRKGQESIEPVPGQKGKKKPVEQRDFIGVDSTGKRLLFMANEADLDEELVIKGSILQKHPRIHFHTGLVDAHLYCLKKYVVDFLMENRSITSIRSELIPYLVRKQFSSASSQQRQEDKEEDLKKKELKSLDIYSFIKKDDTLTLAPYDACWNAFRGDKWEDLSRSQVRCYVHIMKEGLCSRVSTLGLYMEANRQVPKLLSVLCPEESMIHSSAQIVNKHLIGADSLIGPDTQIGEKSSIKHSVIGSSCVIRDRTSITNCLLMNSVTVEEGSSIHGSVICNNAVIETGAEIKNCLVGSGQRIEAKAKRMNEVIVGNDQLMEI
T1 sequence (Q8CHW4 whole entry R191H partner): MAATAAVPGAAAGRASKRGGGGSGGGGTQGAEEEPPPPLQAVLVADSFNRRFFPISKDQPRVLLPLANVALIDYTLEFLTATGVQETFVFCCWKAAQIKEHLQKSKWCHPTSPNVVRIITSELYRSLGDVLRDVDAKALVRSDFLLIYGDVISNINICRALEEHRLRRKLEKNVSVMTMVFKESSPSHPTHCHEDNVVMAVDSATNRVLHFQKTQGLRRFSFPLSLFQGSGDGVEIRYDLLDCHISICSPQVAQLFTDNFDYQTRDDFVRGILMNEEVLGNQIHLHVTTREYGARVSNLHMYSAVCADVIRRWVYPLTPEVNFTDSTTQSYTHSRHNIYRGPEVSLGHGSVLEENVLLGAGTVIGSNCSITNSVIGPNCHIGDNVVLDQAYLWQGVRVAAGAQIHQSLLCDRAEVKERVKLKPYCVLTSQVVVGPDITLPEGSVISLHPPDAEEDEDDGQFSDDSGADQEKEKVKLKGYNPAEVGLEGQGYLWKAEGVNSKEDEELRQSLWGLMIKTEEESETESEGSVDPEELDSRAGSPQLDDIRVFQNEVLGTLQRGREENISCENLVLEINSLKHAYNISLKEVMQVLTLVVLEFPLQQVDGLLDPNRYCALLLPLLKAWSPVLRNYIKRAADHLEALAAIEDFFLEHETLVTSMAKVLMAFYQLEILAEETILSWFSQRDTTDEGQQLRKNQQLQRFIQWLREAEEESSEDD

B2 (h) = target: T2, B2 (h) (Homo sapiens, UniProt P30411); assay: biochemical; set-up: CEREP panel radioligand binding displacement, % inhibition of control specific binding by 10 uM 2BAct; conditions: Type=Agonist radioligand; read-out: % inhibition of Control specific binding
T2 construct: gene BDKRB2
Method: (§1) Supplementary file elife-42940-supp1.xlsx: Supplementary file 1. (A) Binding of 2BAct at 10 μM to the CEREP panel of receptors/enzymes/ion channels. Compound binding was calculated as a % inhibition of the binding of a radioactively labeled ligand specific for each target. Results showing inhibition or stimulation higher than 50% are considered to represent significant effects of the test compound. (B) Pharmacokinetic data from 2BAct dosing in mice. (C) GO Biological Processes identified by enrichment analysis of RNA-seq data. (D) List of genes used for enrichment analysis of scRNA-seq data.

M5 (h) = target: T3, M5 (h) (Homo sapiens, UniProt P08912); assay: biochemical; set-up: CEREP panel radioligand binding displacement, % inhibition of control specific binding by 10 uM 2BAct; conditions: Type=Antagonist radioligand; read-out: % inhibition of Control specific binding
T3 construct: gene CHRM5
Method: as §1

5-HT3 (h) = target: T4, 5-HT3 (h) (Homo sapiens, UniProt P46098); assay: biochemical; set-up: CEREP panel radioligand binding displacement, % inhibition of control specific binding by 10 uM 2BAct; conditions: Type=Antagonist radioligand; read-out: % inhibition of Control specific binding
T4 construct: gene HTR3A
Method: as §1

AT1 (h) = target: T5, AT1 (h) (Homo sapiens, UniProt P30556); assay: biochemical; set-up: CEREP panel radioligand binding displacement, % inhibition of control specific binding by 10 uM 2BAct; conditions: Type=Antagonist radioligand; read-out: % inhibition of Control specific binding
T5 construct: gene AGTR1
Method: as §1

ET-A (h) = target: T6, ET-A (h) (Homo sapiens, UniProt P25101); assay: biochemical; set-up: CEREP panel radioligand binding displacement, % inhibition of control specific binding by 10 uM 2BAct; conditions: Type=Agonist radioligand; read-out: % inhibition of Control specific binding
T6 construct: gene EDNRA
Method: as §1

NK2 (h) = target: T7, NK2 (h) (Homo sapiens, UniProt P21452); assay: biochemical; set-up: CEREP panel radioligand binding displacement, % inhibition of control specific binding by 10 uM 2BAct; conditions: Type=Agonist radioligand; read-out: % inhibition of Control specific binding
T7 construct: gene TACR2
T7 sequence (P21452 whole entry): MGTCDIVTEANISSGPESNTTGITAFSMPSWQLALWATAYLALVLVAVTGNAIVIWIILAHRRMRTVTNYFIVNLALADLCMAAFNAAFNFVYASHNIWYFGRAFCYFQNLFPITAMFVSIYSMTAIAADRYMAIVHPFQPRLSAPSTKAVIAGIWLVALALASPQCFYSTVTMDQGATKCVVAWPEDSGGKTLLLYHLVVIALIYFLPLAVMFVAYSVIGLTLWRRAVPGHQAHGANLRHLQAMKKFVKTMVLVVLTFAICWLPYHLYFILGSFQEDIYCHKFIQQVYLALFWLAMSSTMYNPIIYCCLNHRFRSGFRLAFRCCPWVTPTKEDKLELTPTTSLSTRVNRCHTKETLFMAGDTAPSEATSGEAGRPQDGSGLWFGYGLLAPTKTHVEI
Method: as §1

a2A (h) = target: T8, a2A (h) (Homo sapiens, UniProt P08913); assay: biochemical; set-up: CEREP panel radioligand binding displacement, % inhibition of control specific binding by 10 uM 2BAct; conditions: Type=Antagonist radioligand; read-out: % inhibition of Control specific binding
T8 construct: gene ADRA2A
Method: as §1

5-HT1B = target: T9, 5-HT1B (Rattus norvegicus, UniProt P28564); assay: biochemical; set-up: CEREP panel radioligand binding displacement, % inhibition of control specific binding by 10 uM 2BAct; conditions: Type=Antagonist radioligand; read-out: % inhibition of Control specific binding
T9 construct: gene Htr1b
T9 sequence (P28564 whole entry): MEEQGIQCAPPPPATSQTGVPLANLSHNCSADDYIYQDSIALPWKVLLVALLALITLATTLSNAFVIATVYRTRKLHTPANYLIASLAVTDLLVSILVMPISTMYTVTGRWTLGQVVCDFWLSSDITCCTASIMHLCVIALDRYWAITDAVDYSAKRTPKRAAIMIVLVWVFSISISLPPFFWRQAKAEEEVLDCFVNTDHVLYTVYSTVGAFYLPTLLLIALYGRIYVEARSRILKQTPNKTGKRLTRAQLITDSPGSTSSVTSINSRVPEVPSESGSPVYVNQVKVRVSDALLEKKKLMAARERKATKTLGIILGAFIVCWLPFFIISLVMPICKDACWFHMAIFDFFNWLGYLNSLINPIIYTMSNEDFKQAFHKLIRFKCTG
Method: as §1

a2B (h) = target: T10, a2B (h) (Homo sapiens, UniProt P18089); assay: biochemical; set-up: CEREP panel radioligand binding displacement, % inhibition of control specific binding by 10 uM 2BAct; conditions: Type=Antagonist radioligand; read-out: % inhibition of Control specific binding
T10 construct: gene ADRA2B
T10 sequence (P18089 whole entry): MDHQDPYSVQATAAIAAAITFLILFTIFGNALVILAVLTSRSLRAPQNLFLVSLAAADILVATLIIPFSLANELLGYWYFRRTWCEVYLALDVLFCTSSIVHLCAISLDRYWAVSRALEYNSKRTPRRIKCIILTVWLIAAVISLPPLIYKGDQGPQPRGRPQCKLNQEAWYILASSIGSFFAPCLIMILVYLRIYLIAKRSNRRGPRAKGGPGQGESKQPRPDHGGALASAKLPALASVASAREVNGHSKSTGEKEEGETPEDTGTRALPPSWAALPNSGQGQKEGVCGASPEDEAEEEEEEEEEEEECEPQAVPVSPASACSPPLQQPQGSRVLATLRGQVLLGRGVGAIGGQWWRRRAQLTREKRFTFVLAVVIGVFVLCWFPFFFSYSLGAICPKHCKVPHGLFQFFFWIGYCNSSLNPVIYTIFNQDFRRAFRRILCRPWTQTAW
Method: as §1

Y1 (h) = target: T11, Y1 (h) (Homo sapiens, UniProt P25929); assay: biochemical; set-up: CEREP panel radioligand binding displacement, % inhibition of control specific binding by 10 uM 2BAct; conditions: Type=Agonist radioligand; read-out: % inhibition of Control specific binding
T11 construct: gene NPY1R
Method: as §1

motilin (h) = target: T12, motilin (h) (Homo sapiens, UniProt O43193); assay: biochemical; set-up: CEREP panel radioligand binding displacement, % inhibition of control specific binding by 10 uM 2BAct; conditions: Type=Agonist radioligand; read-out: % inhibition of Control specific binding
T12 construct: gene MLNR
T12 sequence (O43193 whole entry): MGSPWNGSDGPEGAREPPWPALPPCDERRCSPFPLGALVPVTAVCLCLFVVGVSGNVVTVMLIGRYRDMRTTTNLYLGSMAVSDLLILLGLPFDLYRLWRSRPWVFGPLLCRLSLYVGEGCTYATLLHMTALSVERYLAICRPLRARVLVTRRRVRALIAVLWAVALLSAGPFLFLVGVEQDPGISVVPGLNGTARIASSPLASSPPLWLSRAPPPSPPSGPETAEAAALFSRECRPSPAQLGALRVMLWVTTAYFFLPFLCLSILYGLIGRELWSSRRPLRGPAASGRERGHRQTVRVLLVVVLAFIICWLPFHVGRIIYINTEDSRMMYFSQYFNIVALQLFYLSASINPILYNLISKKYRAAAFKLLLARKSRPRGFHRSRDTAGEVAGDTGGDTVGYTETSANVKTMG
Method: as §1

CB1 (h) = target: T13, CB1 (h) (Homo sapiens, UniProt P21554); assay: biochemical; set-up: CEREP panel radioligand binding displacement, % inhibition of control specific binding by 10 uM 2BAct; conditions: Type=Agonist radioligand; read-out: % inhibition of Control specific binding
T13 construct: gene CNR1
Method: as §1

A3 (h) = target: T14, A3 (h) (Homo sapiens, UniProt P0DMS8); assay: biochemical; set-up: CEREP panel radioligand binding displacement, % inhibition of control specific binding by 10 uM 2BAct; conditions: Type=Agonist radioligand; read-out: % inhibition of Control specific binding
T14 construct: gene ADORA3
T14 sequence (P0DMS8 whole entry): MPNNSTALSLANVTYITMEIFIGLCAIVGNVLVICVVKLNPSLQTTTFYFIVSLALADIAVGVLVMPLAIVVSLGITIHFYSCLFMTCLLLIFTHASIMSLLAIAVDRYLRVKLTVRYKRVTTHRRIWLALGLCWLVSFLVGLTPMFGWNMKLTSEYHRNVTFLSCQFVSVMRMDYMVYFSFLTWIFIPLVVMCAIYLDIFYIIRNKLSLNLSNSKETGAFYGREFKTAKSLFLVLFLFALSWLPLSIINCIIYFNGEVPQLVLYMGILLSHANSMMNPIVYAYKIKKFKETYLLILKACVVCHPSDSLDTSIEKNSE
Method: as §1

V1a (h) = target: T15, V1a (h) (Homo sapiens, UniProt P37288); assay: biochemical; set-up: CEREP panel radioligand binding displacement, % inhibition of control specific binding by 10 uM 2BAct; conditions: Type=Agonist radioligand; read-out: % inhibition of Control specific binding
T15 construct: gene AVPR1A
Method: as §1

M3 (h) = target: T16, M3 (h) (Homo sapiens, UniProt P20309); assay: biochemical; set-up: CEREP panel radioligand binding displacement, % inhibition of control specific binding by 10 uM 2BAct; conditions: Type=Antagonist radioligand; read-out: % inhibition of Control specific binding
T16 construct: gene CHRM3
T16 sequence (P20309 whole entry): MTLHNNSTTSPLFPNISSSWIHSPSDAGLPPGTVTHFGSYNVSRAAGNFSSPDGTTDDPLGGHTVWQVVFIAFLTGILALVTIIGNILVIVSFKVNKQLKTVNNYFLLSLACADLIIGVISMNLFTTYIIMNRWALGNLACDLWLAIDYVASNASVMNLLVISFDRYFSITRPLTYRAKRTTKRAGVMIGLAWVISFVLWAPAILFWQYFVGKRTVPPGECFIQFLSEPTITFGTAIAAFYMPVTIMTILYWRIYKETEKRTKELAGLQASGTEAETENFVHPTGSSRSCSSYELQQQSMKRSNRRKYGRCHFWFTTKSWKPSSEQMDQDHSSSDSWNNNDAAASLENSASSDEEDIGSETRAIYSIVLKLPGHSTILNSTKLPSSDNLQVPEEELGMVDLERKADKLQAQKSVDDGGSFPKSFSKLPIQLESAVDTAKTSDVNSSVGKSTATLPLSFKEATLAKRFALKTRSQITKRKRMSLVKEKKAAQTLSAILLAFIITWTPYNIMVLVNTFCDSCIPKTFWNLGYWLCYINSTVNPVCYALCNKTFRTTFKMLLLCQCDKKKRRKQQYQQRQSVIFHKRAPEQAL
Method: as §1

a1B (h) = target: T17, a1B (h) (Homo sapiens, UniProt P35368); assay: biochemical; set-up: CEREP panel radioligand binding displacement, % inhibition of control specific binding by 10 uM 2BAct; conditions: Type=Antagonist radioligand; read-out: % inhibition of Control specific binding
T17 construct: gene ADRA1B
Method: as §1

M2 (h) = target: T18, M2 (h) (Homo sapiens, UniProt P08172); assay: biochemical; set-up: CEREP panel radioligand binding displacement, % inhibition of control specific binding by 10 uM 2BAct; conditions: Type=Antagonist radioligand; read-out: % inhibition of Control specific binding
T18 construct: gene CHRM2
Method: as §1

PPARg (h) = PPARg (h) (Homo sapiens, UniProt P37231); assay: biochemical; set-up: CEREP panel radioligand binding displacement, % inhibition of control specific binding by 10 uM 2BAct; conditions: Type=Agonist radioligand; read-out: % inhibition of Control specific binding
Method: as §1

5-HT4E (h) = target: T19, 5-HT4E (h) (Homo sapiens, UniProt Q13639); assay: biochemical; set-up: CEREP panel radioligand binding displacement, % inhibition of control specific binding by 10 uM 2BAct; conditions: Type=Antagonist radioligand; read-out: % inhibition of Control specific binding
T19 construct: gene HTR4; isoform 4E
Method: as §1

5-HT2C (h) = target: T20, 5-HT2C (h) (Homo sapiens, UniProt P28335); assay: biochemical; set-up: CEREP panel radioligand binding displacement, % inhibition of control specific binding by 10 uM 2BAct; conditions: Type=Antagonist radioligand; read-out: % inhibition of Control specific binding
T20 construct: gene HTR2C
Method: as §1

Q: What does the source list for `O=C(COc1ccc(Cl)c(F)c1)NC12CC(NC(=O)c3cnc(C(F)F)cn3)(C1)C2` [2BAct]?
A: EC50 (eIF2B): 7.3 nM; inhibition at 10 µM (B2 (h)): 8.7%; inhibition at 10 µM (M5 (h)): 11.8%; inhibition at 10 µM (5-HT3 (h)): 9.2%; inhibition at 10 µM (AT1 (h)): 13.2%; inhibition at 10 µM (ET-A (h)): -5.3%; inhibition at 10 µM (NK2 (h)): 12%; inhibition at 10 µM (a2A (h)): -5.5%; inhibition at 10 µM (5-HT1B): -8.8%; inhibition at 10 µM (a2B (h)): 12.2%; inhibition at 10 µM (Y1 (h)): -17.4%; inhibition at 10 µM (motilin (h)): -10.8%; inhibition at 10 µM (CB1 (h)): 8.3%; inhibition at 10 µM (A3 (h)): 20.6%; inhibition at 10 µM (V1a (h)): 6.4%; inhibition at 10 µM (M3 (h)): -0.9%; inhibition at 10 µM (a1B (h)): -14.2%; inhibition at 10 µM (M2 (h)): 4.2%; inhibition at 10 µM (PPARg (h)): 19%; inhibition at 10 µM (5-HT4E (h)): 8.2%; inhibition at 10 µM (5-HT2C (h)): 38.7%
